Where a name gives a salt, the structure may show the parent alone.
biological target: T1, FPPS (Farnesyl pyrophosphate synthase) (Homo sapiens, UniProt P14324); test: FPPS Assay: LC-MS Method; type: biochemical; details: GPP/IPP 5 μM each, reaction stopped after 10 minutes
T1 sequence (P14324 1-353 isoform P14324-2): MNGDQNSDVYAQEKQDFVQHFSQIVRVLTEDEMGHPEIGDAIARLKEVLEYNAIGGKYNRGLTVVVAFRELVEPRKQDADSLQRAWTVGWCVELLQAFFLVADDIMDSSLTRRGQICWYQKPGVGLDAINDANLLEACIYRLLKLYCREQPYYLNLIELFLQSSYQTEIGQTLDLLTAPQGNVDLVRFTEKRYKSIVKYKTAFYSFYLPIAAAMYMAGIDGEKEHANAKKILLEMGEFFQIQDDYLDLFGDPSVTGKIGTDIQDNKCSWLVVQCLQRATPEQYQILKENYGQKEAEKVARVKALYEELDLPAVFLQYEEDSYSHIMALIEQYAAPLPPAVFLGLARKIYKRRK
Procedure: Recombinant human Farnesyl Pyrophosphate synthase (FPPS) was cloned, expressed and purified as previously described {J.-M. Rondeau et al., ChemMedChem 2006, 1, 267-271.} and stored as a 10 mg/mL stock solution in 25 mM Tris pH 7.4, 25 mM NaCl, 2 mM DTT (dithiothreitol). Geranyl pyrophosphate (GPP) was purchased from Anawa AG (Switzerland) and stored as a 1 mg/mL solution in 4 parts isopropanol:3 parts ammonia:1 part water. 1-[^3H]Isopentenyl pyrophosphate (IPP), 50 Ci/mmol; 1 Ci/mL, was purchased from Anawa AG and stored in ethanol:ammonia hydroxide 1:1 at −80 C. 1-[^3H] Farnesyl pyrophosphate triammonium salt, 100 Ci/mmol; 1 mCi/mL in 70% ethanol, 0.25 M ammonium bicarbonate was purchased from Anawa AG. Phospholipid-coated 384-well image FlashPlates™ were purchased from PerkinElmer. the assay buffer consisted of 20 mM HEPES pH7.4, 5 mM MgCl2 and 1 mM CaCl2.
Selected compounds are assayed in another FPPS based assay:
Into each well of a 384-well plate, 5 μL of compound in 20% DMSO/water is placed. 25 μL of GPP/IPP (5 μM each in assay buffer) is then added. The reaction is started with the addition of 10 μL of FPPS (diluted 1 to 10000 with assay buffer). After 10 minutes, the reaction is stopped by addition of 10 μL of 2 μM FSPP in 2% DMIPA/IPA. The reaction mixture is then extracted with 50 μL of n-pentanol using vortex mixing. After phase separation, 25 μL of the upper (n-pentanol) layer is transferred to a new 384-well plate and the pentanol is evaporated using a vacuum centrifuge. The dried residue is reconstituted in 50 μL of 0.1% DMIPA/water for analysis by the LC/MS/MS method.
LC/MS/MS analyses are performed on a Micromass Quattro Micro interfaced to an Agilent 1100 binary LC pump. Injection is performed by a Gilson 215/889 autosampler using an injection loop size of 2.5 μL. Chromatography is performed on a Waters 2.1×20 mm Xterra MS C18 5 μm guard column (P/N186000652) contained in a guard column holder (P/N 186000262) using 0.1% DMIPA/methanol as solvent A and 0.1% DMIPA/water as solvent B. The gradient is 5% A from 0.00 to 0.30 min, 50% A at 0.31 min, 80% A at 1.00 min, and 5% A from 1.01 to 2.00 min. The flow rate is 0.3 mL/min and the flow is diverted to waste from 0.00 to 0.50 min and again from 1.20 to 2.00 min.
The MRM transitions monitored are 381^−>79^− for FPP and 397^−>159^− for FSPP at a collision energy of 22 eV and a collision cell pressure of 2.1×10^−3 mbar of Ar. The dwell time per transition is 400 msec with a span of 0.4 Da. The interchannel delay and interscan delay are both 0.02 sec. Other mass spectrometric operating parameters are: capillary, 2.0 kV; cone, 35 V; extractor, 2.0 V, source temp., 100° C.; desolvation gas temp., 250° C.; desolvation gas flow, 650 L/hr; cone gas flow, 25 L/hr; multiplier, 650 V.
The total cycle time per sample is 2.5 minutes. Since the analysis is formatted for 384-well plates, a plate is analyzed in 16 hours. The chromatograms are processed using Quanlynx software, which divides the area of individual FPP peaks by the area of the FSPP peaks (internal standard). The resulting values are reported as the relative response for the corresponding sample well.

IC50 [nM] | Structure (SMILES)
37 | CCOC(=O)Nc1cc(-c2cccc3ccccc23)c2nc(C(=O)O)ccc2c1 [Example 29, 6-Ethoxycarbonylamino-8-naphthalen-1-yl-quinoline-2-carboxylic acid]
24 | CCOc1c(N)cc(-c2cccc3ccccc23)c2nc(C(=O)O)ccc12 [Example 30, 6-Amino-5-ethoxy-8-naphthalen-1-yl-quinoline-2-carboxylic acid]
56 | CCOc1c(I)cc(-c2cccc3ccccc23)c2nc(C(=O)O)ccc12 [Example 33, 5-Ethoxy-6-iodo-8-naphthalen-1-yl-quinoline-2-carboxylic acid lithium salt]
100 | O=C(O)c1ccc2cc(-c3ccsc3)cc(-c3cccc4ccccc34)c2n1 [Example 34, 8-Naphthalen-1-yl-6-thiophen-3-yl-quinoline-2-carboxylic acid]
311 | O=C(O)c1ccc2cc(-c3cccs3)cc(-c3cccc4ccccc34)c2n1 [Example 35, 8-Naphthalen-1-yl-6-thiophen-2-yl-quinoline-2-carboxylic acid lithium salt]
217 | Cc1cccc2c(-c3cccc4ccc(C(=O)O)nc34)cccc12 [Example 38, 8-(5-Methyl-naphthalen-1-yl)-quinoline-2-carboxylic acid]
267 | Nc1cccc2c(-c3cccc4ccc(C(=O)O)nc34)cccc12 [Example 39, 8-(5-Amino-naphthalen-1-yl)-quinoline-2-carboxylic acid]
9 | Nc1cc(-c2cccc3ccccc23)c2nc(/C=C/P(=O)(O)O)ccc2c1 [Example 42, [(E)-2-(6-Amino-8-naphthalen-1-yl-quinolin-2-yl)-vinyl]-phosphonic acid]
103 | O=[N+]([O-])c1cc(-c2cccc3ccccc23)c2nc(/C=C/P(=O)(O)O)ccc2c1 [Example 43, [(E)-2-(6-Nitro-8-naphthalen-1-yl-quinolin-2-yl)-vinyl]-phosphonic acid]
14 | COC(=O)Nc1cc(-c2cccc3ccccc23)c2nc(/C=C/P(=O)(O)O)ccc2c1 [Example 44, [(E)-2-(6-Methoxycarbonylamino-8-naphthalen-1-yl-quinolin-2-yl)-vinyl]-phosphonic acid]
26 | CC(=O)Nc1cc(-c2cccc3ccccc23)c2nc(/C=C/P(=O)(O)O)ccc2c1 [Example 45, [(E)-2-(6-Acetylamino-8-naphthalen-1-yl-quinolin-2-yl)-vinyl]-phosphonic acid]
91 | CS(=O)(=O)Nc1cc(-c2cccc3ccccc23)c2nc(/C=C/P(=O)(O)O)ccc2c1 [Example 46, [(E)-2-(6-Methanesulfonylamino-8-naphthalen-1-yl-quinolin-2-yl)-vinyl]-phosphonic acid]
204 | CS(=O)(=O)N(c1cc(-c2cccc3ccccc23)c2nc(/C=C/P(=O)(O)O)ccc2c1)S(C)(=O)=O [Example 47, {(E)-2-[6-(di-methanesulfonyl)amino-8-naphthalen-1-yl-quinolin-2-yl]-vinyl}-phosphonic acid]
12 | O=C(Nc1cc(-c2cccc3ccccc23)c2nc(/C=C/P(=O)(O)O)ccc2c1)c1cccnc1 [Example 48, ((E)-2-{8-Naphthalen-1-yl-6-[(pyridine-3-carbonyl)-amino]-quinolin-2-yl}-vinyl)phosphonic acid]
19 | CCOC(=O)Nc1cc(-c2cccc3ccccc23)c2nc(-c3nn[nH]n3)ccc2c1 [Example 50, N-[8-Naphthalen-1-yl-2-(2H-tetrazol-5-yl)-quinolin-6-yl]-carbamic acid ethyl ester]
48 | CC(=O)Nc1cc(-c2cccc3ccccc23)c2nc(-c3nn[nH]n3)ccc2c1 [Example 51, N-[8-Naphthalen-1-yl-2-(2H-tetrazol-5-yl)-quinolin-6-yl]-acetamide]

tested on: not given; test: not given; details: not given

melting point [°C] | Structure (SMILES)
205 to 208 | CCOC(=O)Nc1cc(-c2cccc3ccccc23)c2nc(C(=O)O)ccc2c1 [Example 29, 6-Ethoxycarbonylamino-8-naphthalen-1-yl-quinoline-2-carboxylic acid]
182 to 184 | CCOc1c(N)cc(-c2cccc3ccccc23)c2nc(C(=O)O)ccc12 [Example 30, 6-Amino-5-ethoxy-8-naphthalen-1-yl-quinoline-2-carboxylic acid]
164 to 166 | O=C(O)c1ccc2cc(-c3ccsc3)cc(-c3cccc4ccccc34)c2n1 [Example 34, 8-Naphthalen-1-yl-6-thiophen-3-yl-quinoline-2-carboxylic acid]

Source: patent US20120094958A1, “QUINOLINES AS INHIBITORS OF FARNESYL PYROPHOSPHATE SYNTHASE” (NOVARTIS AG, priority 2008, published 2012)
